Results: patent US20260234630A1, “Methods for Treating Multiple Myeloma” (Celgene Corporation, priority 2022, published 2026)

Experiments:
Assay type in all cases: cell-based
UHRF1 [1] = test: Western blot of UHRF1 protein in MM cells
Protocol: (§1) FIG. 1A-1F. Down regulation of UHRF1 transcription by IMiDs correlates with drug sensitivity of multiple myeloma. (1A) Volcano plot of protein expression changes determined by mass spectrometry in H929 cells at 24 hr of treatment with CC-220 (0.1 μM) or DMSO control. X axis, Log2fold change (FC); Y axis, significance,-log 10 [p-value]. […] (1B) Volcano plot of gene expression changes determined by Affymetrix microarray in H929 cells treated with POM (1 μM) or DMSO for 24 hr. X axis, Log2fold change (FC); Y axis, significance,-log 10 [p-value], n=2 technical replicates). […] (1C) Western blot analysis protein expression of UHRF1, Ikaros, Aiolos and ZFP91 in H929 cells treated with 1 μM POM for indicated time. (1D) qRT-PCR analysis of UHRF1 gene expression levels in cells as in (1C). Error bars represent the SEM from duplicate measurements. (1E) Western blot analysis protein expression of UHRF1 and indicated proteins in MM cells treated with DMSO (−) or 1 μM POM (+) for 3 days. GAPDH serves as a loading control. (1F) Thymidine incorporation of various MM cell lines treated with indicated dose of POM for 3 days. Error bars represent the SEM from technical replicates.
(§2) FIG. 2A-2E. UHRF1 expression is positively regulated by Ikaros and Aiolos in IMiDs sensitive MM cells. (2A) Western blot analysis protein expression of UHRF1, Ikaros, Aiolos, ZFP91 and Cereblon expression in control [shLuciferase (shLuc)] and cereblon knockdown (shCRBN) H929 cells treated with DMSO and 1 μM POM for 3 days. GAPDH, loading control. Arrow head, UHRF1. (2B) qRT-PCR analysis of UHRF1 gene expression levels in cells as in (2A). Data was normalized to ACTB. Error bars represent the SEM of technical duplicates. *** P<0.001 (Two-tailed unpaired Student's t-test). (2C) Western blot analysis protein expression of UHRF1, Ikaros and Aiolos in stably transduced H929 cells after Dox induction (0, 10, 50 or 100 ng/ml) for 3 days of non-target shRNA (shNT) or shRNAs targeting Ikaros (shIKZF1) or Aiolos (shIKZF3). (2D) qRT-PCR analysis of UHRF1 gene expression levels in cells as in (2C). Shown are cells induced with Dox (50 ng/ml) for 3 days. Data was normalized to GAPDH. Error bars represent the SEM of technical duplicates. *P<0.05, ** P<0.01, *** P<0.001, **** P<0.0001 (Two-tailed unpaired Student's t-test). (2E) ChIP-qPCR analysis of the occupancy Aiolos (upper panel) or H3K27ac (lower panel) occupancy at transcription star site (TSS), gene body (+7 kb) and gene end (GE) of UHRF1 gene in H929, MM1.S or RPMI 8226 cells treated with DMSO or 1 μM POM for 24 hr. ChIP with control rabbit IgG (IgG) serves as a negative control. Error bars represent the SEM of technical triplicates. * P<0.05, ** P<0.01, **** P<0.0001 (Two-tailed unpaired Student's t-test).
FIG. 6A-6D. […]

UHRF1 mRNA = test: qRT-PCR of UHRF1 gene expression in MM cells
Protocol: as §1, §2
FIG. 6A-6D. […] (6A) Immunocytochemistry assay of UHRF1 in H929 cells treated with DMSO or 1 μM POM for 48 hrs. (6B) qRT-PCR analysis of UHRF1 gene expression levels in indicated MM cells treated with indicated doses of POM for 3 days. Data was normalized to ACTB. Error bars represent the SEM from duplicate measurements. * P<0.05, ** P<0.01, *** P<0.001, **** P<0.0001 (Two-tailed Student's t-test). […]
Total RNA was extracted by RNeasy Mini Kit (Qiagen) and reverse transcribed by iScrip cDNA Synthesis Kit (Bio-rad). Quantitative real-time PCR (qPCR) was conducted on a VillA 7 System using the Power SYBR Green PCR Master Mix (Applied Biosystems). Gene expression values were calculated by normalization to Actb using the comparative CT method.

UHRF1 [2] = test: Immunocytochemistry assay of UHRF1 in H929 cells; settings: 48 hours after 1 μM POM
Protocol: FIG. 6A-6D. […] (6A) Immunocytochemistry assay of UHRF1 in H929 cells treated with DMSO or 1 μM POM for 48 hrs. (6B) qRT-PCR analysis of UHRF1 gene expression levels in indicated MM cells treated with indicated doses of POM for 3 days. Data was normalized to ACTB. Error bars represent the SEM from duplicate measurements. * P<0.05, ** P<0.01, *** P<0.001, **** P<0.0001 (Two-tailed Student's t-test). (6C) Western blot analysis protein expression of UHRF1, Ikaros, Aiolos, ZFP91 and Celebron in H929 cells treated with 1 μM POM or 0.1 μM CC-220 for 3 days. DMSO, vehicle control. (6D) Western blot analysis protein expression of UHRF1, Ikaros, Aiolos, ZFP91 and Celebron in H929 or RPMI 8226 cells treated with 1 μM POM, 0.1 μM CC-220 or 0.01 μM CC-480 for 3 days. DMSO, vehicle control.

[3] = H929 cells, POM 1 μM, time course
[4] = shCRBN vs shLuc H929 cells, 1 μM POM, 3 days

Nc1cccc2c1C(=O)N(C1CCC(=O)NC1=O)C2=O (stereo not drawn) [POM, pomalidomide]
time to profound reduction of UHRF1 protein level (UHRF1 [1]; [3]): ≤ 48 h
UHRF1 protein levels (UHRF1 [1]; MC/CAR and RPMI 8226 cells, 1 μM POM, 3 days): without affecting
UHRF1 expression level (UHRF1 [1]; sensitive cell lines H929, MM1.S, DF15 and U266, 1 μM POM, 72 hours): downregulated
downregulation of UHRF1 protein by POM under cereblon knockdown (UHRF1 [1]; [4]): rescued
UHRF1 mRNA (UHRF1 mRNA; H929, MM1.S and U266 cells, indicated doses of POM, 3 days): dose dependent downregulation
time to profound reduction of UHRF1 mRNA level (UHRF1 mRNA; [3]): up to 24 hours
UHRF1 gene expression (UHRF1 mRNA; drug sensitive MM (FIG. 6 title)): downregulated
downregulation of UHRF1 mRNA by POM under cereblon knockdown (UHRF1 mRNA; [4]): rescue
UHRF1 protein by immunocytochemistry (UHRF1 [2]): nearly undetectable
